{
  "source": "patent US11021463B2",
  "about": "“Therapeutic inhibitory compounds” (Attune Pharmaceuticals, Inc., priority 2013, dated 2021)",
  "biological_target": "human plasma kallikrein (Homo sapiens (Human), UniProt P03952)",
  "sequence (P03952 391-638 limits assumed)": "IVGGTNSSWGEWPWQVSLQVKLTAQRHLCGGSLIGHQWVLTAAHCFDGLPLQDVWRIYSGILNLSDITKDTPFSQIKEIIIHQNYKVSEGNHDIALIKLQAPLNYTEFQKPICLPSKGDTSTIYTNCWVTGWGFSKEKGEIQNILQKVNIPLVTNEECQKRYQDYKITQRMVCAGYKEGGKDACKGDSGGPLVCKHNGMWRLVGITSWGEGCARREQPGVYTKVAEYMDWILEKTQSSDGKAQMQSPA",
  "sequence (P03952 20-390 partner limits assumed)": "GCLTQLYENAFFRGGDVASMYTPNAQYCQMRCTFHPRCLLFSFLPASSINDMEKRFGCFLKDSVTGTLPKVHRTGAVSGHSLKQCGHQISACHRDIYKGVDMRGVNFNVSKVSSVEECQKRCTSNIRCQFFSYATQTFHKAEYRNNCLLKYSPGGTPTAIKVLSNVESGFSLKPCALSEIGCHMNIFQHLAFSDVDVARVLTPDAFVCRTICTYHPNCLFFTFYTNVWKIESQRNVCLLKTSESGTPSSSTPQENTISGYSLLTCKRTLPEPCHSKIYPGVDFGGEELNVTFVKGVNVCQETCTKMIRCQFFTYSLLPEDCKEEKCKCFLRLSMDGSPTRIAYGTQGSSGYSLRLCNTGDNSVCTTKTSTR",
  "assay": "In vitro enzyme inhibition of human plasma kallikrein (Pro-Phe-Arg-AMC cleavage)",
  "format": "biochemical",
  "details": "human Plasma Kallikrein (Abcam), Pro-Phe-Arg-AMC substrate, 37° C., pH 7.5; read-out: hPK IC50",
  "experimental": "The ability of the compounds disclosed herein to inhibit human plasma kallikrein activity was quantified according to the procedures below.\nA 10 mM solution of the test compound was made in DMSO. […] A control tube containing only DMSO is included. 16 μL of each compound test solution was combined with 384 μL of assay buffer (50 mM Tris-HCl pH 7.5, 150 mM NaCl, 0.01% Triton X-100) to yield a “4× test compound buffer stock”.\nThese solutions are hereby referred to as 4× hPK and 2×PFR-AMC, respectively.\n50 μL was removed from this mixture and placed into duplicate wells on a Microfluor 1Black U-bottom microtiter plate (Thermo Scientific). This plate was incubated for 5 minutes at 37° C. To each well, 50 μL of pre-warmed 2×PFR-AMC was added to start the enzymatic reaction. Cleavage of PFR-AMC was monitored in a Biotek Synergy H4 reader set at 37° C. Readings are taken every 43 seconds for 1 hour. […] The IC50 is calculated using the Gen5 (Biotek Instruments).\nThe ability of the compounds in Table 3 to inhibit human plasma kallikrein activity was determined.",
  "data": [
    {"substance": "N-((6-amino-2,4-dimethylpyridin-3-yl)methyl)-2-((5-methyl-3a,7a-dihydro-1H-indazol-1-yl)methyl)isonicotinamide [Example 108]", "values": [
      {"measurement": "IC50", "result": "< 100", "unit": "nM"}
    ]}
  ]
}
